In patent US11260050B2, “Combination of cotinine plus antioxidant for treatment-resistant depression and correction of astrocytes functional deficit induced by depression and other neuropathological” (UNIVERSIDAD SAN SEBASTIAN, priority 2017, dated 2022):

Experiments:
conditioned mice [1] = assay: Forced swim test after fear conditioning and extinction (Example 4); format: in vivo, Mice C57BL/6; conditions: FC mice after extinction; Tukey: cotinine p<0.001, combination p<0.005, sertraline p<0.05
Experimental: (§1) Three-month-old mice (n=5-6/condition) were weighed and assigned to treatment groups. Mice were treated with vehicle or drugs, starting two h after fear conditioning and daily after behavioral testing until euthanasia. Mice received daily treatments with 1. PBS (phosphate buffer saline, pH 7.4) via intranasal; 2. Cotinine (10 mg/ml) dissolved in PBS via intranasal (IN Cot, 24 μl); 3. Krill oil dissolved in PBS, via intranasal (48 mg/ml, 24 μl); 4. Cotinine (10 mg/ml) plus krill oil dissolved in PBS, via intranasal (48 mg/ml, 24 μl); 5.
(§2) For intranasal delivery, mice were hand-restrained, placed in a supine position, and given two 12 μl drops of cotinine solutions, or PBS, into both nares consecutively. Mice were given an extra 12 μl treatment drop if the subject forcibly ejected or sneezed out the solution. Mice were held supine for 5-10 seconds after delivery to ensure that all fluid was inhaled.

conditioned mice [2] = assay: Fear retention and extinction tests after fear conditioning (Example 4); format: in vivo, Mice C57BL/6
Experimental: as §1, §2
Contextual fear conditioning was performed as described. The conditioning chamber used (33 cm×20 cm×22 cm) is surrounded by a sound-attenuating box with a camera connected to freeze frame software (MED Associates Inc.) and equipped to provide a background white noise (72 dB). The conditioning chamber contains in one side a speaker and in the opposite side has a 24V light, and a 36-bar insulated shock grid floor. To perform this test, each mouse was placed in the conditioning chamber for 2 min before the onset of a discrete tone (a sound that will last 30 seconds (sec) at 2,800 Hz and 85 dB). In the last two seconds of this tone, mice received a foot shock of 1 mA, kept in the conditioning chamber for 2 min and returned to their home cages. Between trials, the chamber was sanitized with 70% ethanol and dried. Freezing behavior was defined as the absence of all movement except the one needed for breathing was assessed using the FreezeView Software (MED Associates Inc.).
Fear retention and extinction experiments were performed as described, using the same cohorts of mice and reproduced in two separate experiments. To assess fear retention and mice underwent re-exposure to the conditioning chamber in the absence of an unconditioned stimulus (shock or auditory cues) for 3 minutes (min) in daily extinction trials. Freezing behavior was measured using the ANY-Maze® software (Stoelting CO, USA). The extinction trials were continued until the decrease in freezing behavior reached a stable level.

CN[C@H]1CC[C@@H](c2ccc(Cl)c(Cl)c2)c2ccccc21.Cl [Sertraline, (1S,4S)-4-(3,4-dichlorophenyl)-1,2,3,4-tetrahydro-N-methyl-1-naphthalenamine hydrochloride, reference compound]
depressive-like behavior (immobility) in the forced swim test (conditioned mice [1]): significantly decreased depressive-like behavior
freezing behavior during daily extinction trials (speed of fear extinction) (conditioned mice [2]; 5 days of extinction, daily treatment): overall slower extinction of fear than controls
fear reaction (freezing) in the retention test (conditioned mice [2]; treatment started 2 h after FC, IN cotinine 10 mg/ml, IN KO 48 mg/ml, oral sertraline 3 mg/kg): no significant effects
